Test results reported in ChEMBL document CHEMBL3608235, “Pyrroloaryls and pyrroloheteroaryls: Inhibitors of the HIV fusion/attachment, reverse transcriptase and integrase” (Bioorg Med Chem, 2015).

test system: Human immunodeficiency virus 1; experiment: Antiviral activity against HIV1 3B; format: functional, organism-based; settings: Human immunodeficiency virus 1, 3B

Structure (SMILES)	EC50
N#Cc1ccccc1CN1C(=O)N(Cc2cccc(F)c2)S(=O)(=O)n2cccc21	5.6 µM
O=C1N(Cc2ccccc2Cl)c2cccn2S(=O)(=O)N1Cc1cccc(F)c1	7.2 µM
O=C1N(Cc2ccccc2Cl)c2cccn2S(=O)(=O)N1Cc1cccc(Br)c1	18 µM

test system: not listed separately; experiment: Cytotoxicity against mock-infected human MT4 cells assessed as reduction in cell viability; format: cell-based; settings: not given

Structure (SMILES)	CC50
CC(C)=CCn1cc2c(c1)S(=O)(=O)c1cc(Cl)ccc1NC2=O	68 µM

test system: Human immunodeficiency virus; experiment: Antiviral activity against HIV by XTT assay; format: functional, organism-based; settings: Human immunodeficiency virus 1

Structure (SMILES)	IC50
CCCCCCCC(=O)NC1=NN(C)c2ncnc3c2c1cn3[C@@H]1O[C@H](CO)[C@@H](O)[C@H]1O	> 100 µM
CCCCCCCCCC(=O)NC1=NN(C)c2ncnc3c2c1cn3[C@@H]1O[C@H](CO)[C@@H](O)[C@H]1O	> 100 µM
CCCC(=O)NC1=NN(C)c2ncnc3c2c1cn3[C@@H]1O[C@H](CO)[C@@H](O)[C@H]1O	0.5 µM
CCCCCCCCCCCC(=O)NC1=NN(C)c2ncnc3c2c1cn3[C@@H]1O[C@H](CO)[C@@H](O)[C@H]1O	> 100 µM
CCCCCCCCC(=O)NC1=NN(C)c2ncnc3c2c1cn3[C@@H]1O[C@H](CO)[C@@H](O)[C@H]1O	> 100 µM
CCCCC(=O)NC1=NN(C)c2ncnc3c2c1cn3[C@@H]1O[C@H](CO)[C@@H](O)[C@H]1O	0.8 µM
CCCCCCC(=O)NC1=NN(C)c2ncnc3c2c1cn3[C@@H]1O[C@H](CO)[C@@H](O)[C@H]1O	0.035 µM
CCCCCC(=O)NC1=NN(C)c2ncnc3c2c1cn3[C@@H]1O[C@H](CO)[C@@H](O)[C@H]1O	0.35 µM

test system: not listed separately; experiment: Selectivity index, ratio of CC50 for mock-infected human MT4 cells to EC50 for HIV1 infected in human MT4 cells; format: toxicity, cell-based; settings: MT4 cells (mock-infected and HIV1-infected), read-out: Ratio CC50/EC50

Structure (SMILES)	selectivity ratio
CC(C)=CCn1cc2c(c1)S(=O)(=O)c1cc(Cl)ccc1NC2=O	226

target: Human immunodeficiency virus type 1 reverse transcriptase (Human immunodeficiency virus 1, UniProt Q72547); experiment: Inhibition of HIV1 reverse transcriptase; settings: not given

Structure (SMILES)	IC50
O=C(NNc1nc2ccccc2n2cccc12)c1cnccn1	19 µM

test system: Human immunodeficiency virus 2; experiment: Antiviral activity against HIV2 ROD; format: functional, organism-based; settings: Human immunodeficiency virus 2, ISOLATE ROD

Structure (SMILES)	EC50
O=C1N(Cc2cccc(Cl)c2)c2cccn2S(=O)(=O)N1Cc1cccc(Br)c1	> 150 µM
CC(C)=CCN1C(=O)N(Cc2cccc(Cl)c2)S(=O)(=O)n2cccc21	> 150 µM
O=C1N(Cc2cccc(Cl)c2)c2cccn2S(=O)(=O)N1Cc1cccc(Cl)c1	> 150 µM
CC(C)=CCN1C(=O)N(Cc2ccccc2)S(=O)(=O)n2cccc21	> 150 µM
O=C1N(Cc2ccccc2)c2cccn2S(=O)(=O)N1Cc1cccc(Br)c1	> 150 µM
N#Cc1ccccc1CN1C(=O)N(Cc2cccc(Cl)c2)S(=O)(=O)n2cccc21	> 150 µM
O=C1N(Cc2cccc(Cl)c2)c2cccn2S(=O)(=O)N1Cc1ccccc1	> 150 µM
CC(C)=CCN1C(=O)N(Cc2cccc(F)c2)S(=O)(=O)n2cccc21	> 150 µM
N#Cc1cccc(CN2C(=O)N(Cc3cccc(Br)c3)S(=O)(=O)n3cccc32)c1	> 150 µM
O=C1N(Cc2ccccc2Br)c2cccn2S(=O)(=O)N1Cc1cccc(F)c1	> 150 µM
CC(C)=CCN1C(=O)N(Cc2cccc(Br)c2)S(=O)(=O)n2cccc21	> 150 µM
N#Cc1cccc(CN2C(=O)N(Cc3cccc(Cl)c3)S(=O)(=O)n3cccc32)c1	> 150 µM
N#Cc1ccccc1CN1C(=O)N(Cc2cccc(F)c2)S(=O)(=O)n2cccc21	> 150 µM
O=C1N(Cc2ccccc2Br)c2cccn2S(=O)(=O)N1Cc1ccccc1	> 150 µM
N#Cc1cccc(CN2C(=O)N(Cc3cccc(F)c3)S(=O)(=O)n3cccc32)c1	> 150 µM
O=C1N(Cc2ccccc2Cl)c2cccn2S(=O)(=O)N1Cc1cccc(F)c1	> 150 µM
O=C1N(Cc2ccccc2)c2cccn2S(=O)(=O)N1Cc1cccc(Cl)c1	> 150 µM
O=C1N(Cc2ccccc2Cl)c2cccn2S(=O)(=O)N1Cc1cccc(Br)c1	> 150 µM
N#CCN1C(=O)N(Cc2ccccc2)S(=O)(=O)n2cccc21	> 150 µM
O=C1N(Cc2ccccc2Br)c2cccn2S(=O)(=O)N1Cc1cccc(Br)c1	> 150 µM
N#CCN1C(=O)N(Cc2cccc(Cl)c2)S(=O)(=O)n2cccc21	> 150 µM
O=C1N(Cc2ccccc2Cl)c2cccn2S(=O)(=O)N1Cc1ccccc1	> 150 µM
N#Cc1ccccc1CN1C(=O)N(Cc2cccc(Br)c2)S(=O)(=O)n2cccc21	> 150 µM
O=C1N(Cc2ccccc2Br)c2cccn2S(=O)(=O)N1Cc1cccc(Cl)c1	> 150 µM
O=C1N(Cc2ccccc2)c2cccn2S(=O)(=O)N1Cc1cccc(F)c1	> 150 µM
O=C1N(Cc2ccccc2)c2cccn2S(=O)(=O)N1Cc1ccccc1	> 150 µM
N#CCN1C(=O)N(Cc2cccc(F)c2)S(=O)(=O)n2cccc21	> 150 µM
N#CCN1C(=O)N(Cc2cccc(Br)c2)S(=O)(=O)n2cccc21	> 150 µM

test system: Human immunodeficiency virus; experiment: Antiviral activity against HIV infected in human MT4 cells assessed as reduction in virus-induced cytopathogenicity; format: functional, organism-based; settings: Human immunodeficiency virus 1, MT4

Structure (SMILES)	EC50
O=C(O)c1ccc(OCc2nc3ccccc3n3cccc23)cc1	> 8 µg/mL
COc1ccc(Nc2nc3ccccc3n3cccc23)cc1OC	> 31 µg/mL
COc1ccc(OCc2nc3ccccc3n3cccc23)cc1	> 16 µg/mL
